Measurements: patent publication US10588929B1, “Method of synthesizing watermelon seed particles” (KING SAUD UNIVERSITY, priority 2019, dated 2020)

Legend:
Assay in all cases: Zone of inhibition, diffusion agar technique
Assay type in all cases: cell-based
Details in all cases: beyond well diameter of 6 mm, 100 μg of nanoparticles
[1] = test system: Escherichia coli (RCMB 010054)
Experimental: (§1) Watermelon seed nanoparticles synthesized according to Example 1 were tested for antimicrobial activity against gram negative bacteria, gram positive bacteria, and fungi. Zone of inhibition studies were performed, the results of which are summarized in Table 2 (displaying mean zone of inhibition in mm ± standard deviation beyond well diameter of 6 mm). Testing used the diffusion agar technique with 6.0 mm well diameter and administration of 100 μg of the watermelon seed nanoparticles.

[2] = test system: Aspergillus fumigatus (RCMB 02567)
Experimental: as §1

[3] = test system: Bacillus subtilis (RCMB 010068)
Experimental: as §1

[4] = test system: Streptococcus pneumoniae (RCMB 010011)
Experimental: as §1

Gentamicin
mean zone of inhibition [1]: 20.3 ± 0.58 mm

C[C@@H]1[C@H](O)[C@@H](C)/C=C/C=C/C=C/C=C/C=C/C=C/C=C/[C@H](O[C@@H]2O[C@H](C)[C@@H](O)[C@H](N)[C@@H]2O)C[C@@H]2O[C@](O)(C[C@@H](O)C[C@@H](O)[C@H](O)CC[C@@H](O)C[C@@H](O)CC(=O)O[C@H]1C)C[C@H](O)[C@H]2C(=O)O [Amphotericin B]
mean zone of inhibition [2]: 21.7 ± 1.5 mm

CC1(C)S[C@@H]2[C@H](NC(=O)[C@H](N)c3ccccc3)C(=O)N2[C@H]1C(=O)O [Ampicillin]
mean zone of inhibition [3]: 31.3 ± 1.5 mm | mean zone of inhibition [4]: 21.0 ± 1.0 mm
